Measurements from patent US20070117743A1, “New antitumoral compounds” (priority 2003, published 2007).

Experiments:
Assay type in all cases: cell-based, human
PANC-1 = experiment: SRB colorimetric assay of cell growth and viability, PANC-1; conditions: 48 hours exposure, SRB; for CC50: read-out: LC50 PANC-1
A-549 = experiment: SRB colorimetric assay of cell growth and viability, A-549; conditions: 48 hours exposure, SRB; for GI50: read-out: GI50 A-549; for CC50: read-out: LC50 A-549
SK-BR-3 = experiment: SRB colorimetric assay of cell growth and viability, SK-BR-3; conditions: 48 hours exposure, SRB
SK-MEL-28 = experiment: SRB colorimetric assay of cell growth and viability, SK-MEL-28; conditions: 48 hours exposure, SRB; for CC50: read-out: LC50 MEL-28
IGROV-ET = experiment: SRB colorimetric assay of cell growth and viability, IGROV-ET; conditions: 48 hours exposure, SRB; for CC50: read-out: LC50 IGROV-ET
LoVo = experiment: SRB colorimetric assay of cell growth and viability, LoVo; conditions: 48 hours exposure, SRB; for CC50: read-out: LC50 LOVO
LNCaP = experiment: SRB colorimetric assay of cell growth and viability, LNCaP; conditions: 48 hours exposure, SRB; for GI50: read-out: GI50 LN-caP; for CC50: read-out: LC50 LN-caP
HeLa = experiment: SRB colorimetric assay of cell growth and viability, HeLa; conditions: 48 hours exposure, SRB; for CC50: read-out: LC50 HELA
DU-145 = experiment: SRB colorimetric assay of cell growth and viability, DU-145; conditions: 48 hours exposure, SRB
HeLa-APL = experiment: SRB colorimetric assay of cell growth and viability, HeLa-APL; conditions: 48 hours exposure, SRB; for CC50: read-out: LC50 HELA-APL
LoVo-Dox = experiment: SRB colorimetric assay of cell growth and viability, LoVo-Dox; conditions: 48 hours exposure, SRB; for CC50: read-out: LC50 LOVO-DOX
How it was run: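 Here, cells grow drug-free for 18 h, then receive sample dilutions from 10 down to 10^−8 μg/mL for 48 h at 37° C. Protein-bound SRB is solubilized in Tris and quantified at 490 nm.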

HT-29 = experiment: SRB colorimetric assay of cell growth and viability, HT-29; conditions: 48 hours exposure, SRB; for GI50: read-out: GI50 HT-29; for CC50: read-out: LC50 HT-29
IGROV-1 = experiment: SRB colorimetric assay of cell growth and viability, IGROV-1; conditions: 48 hours exposure, SRB

Row | SMILES | GI50 (PANC-1) | TGI PANC-1 (PANC-1) | CC50 (PANC-1) | TGI A-549 (A-549) | GI50 (A-549) | CC50 (A-549) | GI50 (SK-BR-3) | LC50 (SK-BR-3) | TGI SK-BR-3 (SK-BR-3) | GI50 (SK-MEL-28) | TGI MEL-28 (SK-MEL-28) | CC50 (SK-MEL-28) | GI50 (IGROV-ET) | TGI IGROV-ET (IGROV-ET) | CC50 (IGROV-ET) | GI50 (LoVo) | TGI LOVO (LoVo) | CC50 (LoVo) | TGI LN-caP (LNCaP) | GI50 (LNCaP) | further results
1 | C/C=C1\NC(=O)[C@H](Cc2ccc(I)cc2)NC(=O)[C@@H](C(C)C)NC(=O)[C@@H]([C@@H](C)CC)NC(=O)[C@H](NC(=O)[C@H](NC(=O)[C@H](CCCN)NC(=O)[C@H]2CCCN2C(=O)[C@H](NC(=O)[C@@H](NC(=O)[C@@H](NC(=O)[C@H](NC(=O)CC[C@@H](C)CC)C(C)C)[C@@H](C)O)C(C)C)C(C)C)[C@@H](C)CC)[C@@H](C)OC(=O)[C@H](C(C)C)NC1=O [Compound 72, [Phe(4-I)^3, (4S)-MeHex^14]-KF] | 885 nM | 1.68E−06 Molar | 3200 nM | 3.47E−07 Molar | 214 nM | 559 nM | 125 nM | 416 nM | 2.28E−07 Molar | 190 nM | 4.05E−07 Molar | 1200 nM | 259 nM | 3.84E−07 Molar | 570 nM | 129 nM | 2.35E−07 Molar | 428 nM | 8.42E−07 Molar | 270 nM | CC50 (LNCaP): 2380 nM; GI50 (HeLa): 133 nM; TGI HELA (HeLa): 2.24E−07 Molar; CC50 (HeLa): 379 nM; GI50 (DU-145): 132 nM; LC50 (concentration causing 50% net cell kill) (DU-145): 425 nM; TGI DU-145 (DU-145): 2.37E−07 Molar; GI50 (HeLa-APL): 287 nM; TGI HELA-APL (HeLa-APL): 7.73E−07 Molar; CC50 (HeLa-APL): 2280 nM; GI50 (LoVo-Dox): 49.8 nM; TGI LOVO-DOX (LoVo-Dox): 1.23E−07 Molar; CC50 (LoVo-Dox): 274 nM; TGI HT-29 (HT-29): 2.30E−07 Molar; GI50 (HT-29): 120 nM; CC50 (HT-29): 441 nM; GI50 (IGROV-1): 170 nM; LC50 (concentration causing 50% net cell killing) (IGROV-1): 443 nM; TGI IGROV (IGROV-1): 2.74E−07 Molar
2 | C/C=C1\NC(=O)[C@H](Cc2ccc(F)cc2)NC(=O)[C@@H](C(C)C)NC(=O)[C@@H]([C@@H](C)CC)NC(=O)[C@H](NC(=O)[C@H](NC(=O)[C@H](CCCN)NC(=O)[C@H]2CCCN2C(=O)[C@H](NC(=O)[C@@H](NC(=O)[C@@H](NC(=O)[C@H](NC(=O)CC[C@@H](C)CC)C(C)C)[C@@H](C)O)C(C)C)C(C)C)[C@@H](C)CC)[C@@H](C)OC(=O)[C@H](C(C)C)NC1=O [Compound 74, [Phe(4-F)^3, (4S)-MeHex^14]-KF] | 1080 nM | 1.98E−06 Molar | 3600 nM | 1.76E−06 Molar | 956 nM | 3230 nM | 213 nM | 495 nM | 3.24E−07 Molar | 829 nM | 1.64E−06 Molar | 3230 nM | 212 nM | 3.18E−07 Molar | 477 nM | 139 nM | 2.35E−07 Molar | 395 nM | 1.02E−06 Molar | 402 nM | CC50 (LNCaP): 2590 nM; GI50 (HeLa): 214 nM; TGI HELA (HeLa): 3.78E−07 Molar; GI50 (DU-145): 796 nM; LC50 (concentration causing 50% net cell kill) (DU-145): 3250 nM; TGI DU-145 (DU-145): 1.61E−06 Molar; GI50 (HeLa-APL): 675 nM; TGI HELA-APL (HeLa-APL): 1.46E−06 Molar; CC50 (HeLa-APL): 3150 nM; GI50 (LoVo-Dox): 153 nM; TGI LOVO-DOX (LoVo-Dox): 3.09E−07 Molar; CC50 (LoVo-Dox): 624 nM; TGI HT-29 (HT-29): 2.61E−07 Molar; GI50 (HT-29): 137 nM; CC50 (HT-29): 499 nM; GI50 (IGROV-1): 206 nM; LC50 (concentration causing 50% net cell killing) (IGROV-1): 943 nM; TGI IGROV (IGROV-1): 3.88E−07 Molar
3 | C/C=C1\NC(=O)[C@H](Cc2c(F)c(F)c(F)c(F)c2F)NC(=O)[C@@H](C(C)C)NC(=O)[C@@H]([C@@H](C)CC)NC(=O)[C@H](NC(=O)[C@H](NC(=O)[C@H](CCCN)NC(=O)[C@H]2CCCN2C(=O)[C@H](NC(=O)[C@@H](NC(=O)[C@@H](NC(=O)[C@H](NC(=O)CC[C@@H](C)CC)C(C)C)[C@@H](C)O)C(C)C)C(C)C)[C@@H](C)CC)[C@@H](C)OC(=O)[C@H](C(C)C)NC1=O [Compound 71, [Phe(F5)^3, (4S)-MeHex^14]-KF] | 1560 nM | 4.41E−06 Molar | 6380 nM | 2.62E−06 Molar | 1750 nM | 3920 nM | 228 nM | 554 nM | 3.56E−07 Molar | 1520 nM | 2.40E−06 Molar | 3800 nM | 443 nM | 5.35E−07 Molar | 848 nM | 166 nM | 2.77E−07 Molar | 462 nM | 1.12E−06 Molar | 394 nM | CC50 (LNCaP): 2700 nM; GI50 (HeLa): 836 nM; TGI HELA (HeLa): 1.63E−06 Molar; CC50 (HeLa): 3160 nM; GI50 (DU-145): 1220 nM; LC50 (concentration causing 50% net cell kill) (DU-145): 3640 nM; TGI DU-145 (DU-145): 2.11E−06 Molar; GI50 (HeLa-APL): 1330 nM; TGI HELA-APL (HeLa-APL): 2.22E−06 Molar; CC50 (HeLa-APL): 3700 nM; GI50 (LoVo-Dox): 184 nM; TGI LOVO-DOX (LoVo-Dox): 2.90E−07 Molar; CC50 (LoVo-Dox): 456 nM; TGI HT-29 (HT-29): 9.82E−07 Molar; GI50 (HT-29): 330 nM; CC50 (HT-29): 267 nM; GI50 (IGROV-1): 526 nM; LC50 (concentration causing 50% net cell killing) (IGROV-1): 2720 nM; TGI IGROV (IGROV-1): 1.21E−06 Molar
